# Reference: patent US6451798B2, “Substituted alkyl piperazine derivatives” (CV Therapeutics, Inc., priority 2000, dated 2002)
# Legend:
# [1] = Metabolic stability in human liver S-9 fractions; details: for Liver S-9 stability factor: % parent remaining after 30 min at 37 C divided by average % ranolazine remaining (57%), 10 μM, human liver S9 2 mg/mL
# Description: As a measure of metabolic stability the compounds of this invention were incubated with human liver S-9 microsomal fractions. After, 30 minutes at 37 C, the amount of parent drug remaining was determined using LC-mass spec. The response factors for each compound was determined by establishing a standard curve and using an internal standard during the analysis of the samples. […] The compounds of this invention were assayed as described in the protocol below and the percentage of parent remaining was divided by the average % of ranolazine remaining (57%) affording a metabolic stability factor.
# The following reagents were used; Potassium phosphate, 0.5M pH 74. (incubation buffer), kept at room temperature; 0.05M MgCl2 kept at 4° C.; β-Nicotinamide adenine dinucleotide phosphate, tetrasodium salt, reduced form (NADPH), 0.02M solution in water (˜16.6 mg/mL) from Sigma Lot #79H7044 prepared on day of use.
# Incubation mixtures were prepared as follows:
# Combine all components with incubation buffer and re-pipette 200 μL/tube+25 μL of the compound being tested along with 25 μL of S-9.
# After 5 min of pre-incubation at 37° C., at 0 and 30 min after starting the reaction, a 50 μl aliquot of the incubation mixture was removed and added to 100 μL of 9:1 acetonitrile: methanol containing the internal standard.
# The mixture was centrifuged and a 100 μL aliquot of the supernatant was diluted in 1 mL of solvent C (0.1% Formic Acid in water). Then samples were analyzed for change between the ratio of compound to internal standard at time zero and 30 minutes by LC/MS (injected 10 μL).
# Samples were analyzed for the starting compounds and potential metabolite/s by LC/MS using an internal standard on a Micromass platform mass spec with a Keystone Inc. BDS ODS-C18 column with a flow rate of 0.25 ml/min.
# [2] = tested on: mitochondrial fatty acid oxidation using palmitoyl carnitine as substrate; test: Palmitoyl carnitine oxidation in isolated rat heart mitochondria; assay type: biochemical; details: 15 min at 30° C.
# Description: Rat heart mitochodria were isolated by the method of Nedergard and Cannon (Methods in Enzymol. 55, 3, 1979).
# The Palmitoyl carnitine oxidation was carried out in a total volume of 100 microliters containing the following agents: 110 mM KCl, 33 mM Tris buffer at pH 8, 2 mM KPi, 2 mM MgCl2, 0.1 mM EDTA, 0.1 mg/ml of defatted BSA, 0.5 mM malic acid, 3 mM ADP, 52 micrograms of mitochondrial protein, and 43 microM 1-C14 palmitoyl carnitine (Sp. Activity 60 mCi/mmole; 20 microCi/ml, using 5 microliters per assay). The compounds of this invention were added in a DMSO solution at the following concentrations: 100 microM, 30 microM, and 3 microM. In each assay, a DMSO control was used. After 15 min at 30° C., the enzymatic reaction was centrifuged (20,000 g for 1 min), and 70 microliters of the supernatant was added to an activated reverse phase silicic acid column (approximately 0.5 ml of silicic acid). The column was eluted with 2 ml of water, and 0.5 ml of the eluent was used for scintillation counting to determine the amount of C^14 trapped as C^14 bicarbonate ion. The data are presented as % activity of control.
Compound,Liver S-9 stability factor [1],other results
"COc1ccccc1OCC(O)CN1CCN(CC(=O)Nc2c(C)cccc2C)CC1 (racemic) [Ranolazine, (±)-N-(2,6-dimethylphenyl)-4-[2-hydroxy-3-(2-methoxyphenoxy)propyl]-1-piperazineacetamide, reference compound]",1.0,"percentage of parent drug remaining at the 30 minute time point ([1]; human liver S-9, 30 minutes at 37 C, average of five experiments): 57%; Mitochondrial fatty acid oxidation activity (% of control) ([2]; 30 μM compound): 98%; Mitochondrial fatty acid oxidation activity (% of control) ([2]; 100 μM compound): 63%"
Cc1cccc(C)c1NC(=O)CN1CCN(CC(O)COC(C)C)CC1 (stereo not drawn) [Compound 10],,Mitochondrial fatty acid oxidation activity (% of control) ([2]; 100 μM compound): 80%
Cc1cccc(C)c1NC(=O)CN1CCN(CC(O)COC2CCCC2)CC1 (stereo not drawn) [Compound 12],1.48,
Cc1cccc(C)c1NC(=O)CN1CCN(CC(O)COC2CCCCC2)CC1 (stereo not drawn) [Compound 13],1.20,
"Cc1cccc(C)c1NC(=O)CN1CCN(CC(O)COCc2ccc(C(F)(F)F)cc2)CC1 (stereo not drawn) [Compound 17, N-(2,6-dimethylphenyl)-2-[4-(2-hydroxy-3-{[4-(trifluoromethyl)phenyl]methoxy}propyl)piperazinyl]acetamide]",1.0,
"Cc1ccc(COCC(O)CN2CCN(CC(=O)Nc3c(C)cccc3C)CC2)cc1 (stereo not drawn) [Compound 22, N-(2,6-dimethylphenyl)-2-(4-{2-hydroxy-3-[(4-methylphenyl)methoxy]propyl}piperazinyl)acetamide]",0.61,
"Cc1cccc(C)c1NC(=O)CN1CCN(CC(O)COCc2ccc(-c3ccccc3)cc2)CC1 (stereo not drawn) [Compound 23, N-(2,6-dimethylphenyl)-2-(4-{2-hydroxy-3-[(4-phenylphenyl)methoxy]propyl}piperazinyl)acetamide]",0.05,
"CCCCc1ccc(COCC(O)CN2CCN(CC(=O)Nc3c(C)cccc3C)CC2)cc1 (stereo not drawn) [Compound 24, N-(2,6-dimethylphenyl)-2-(4-{3-[(4-butylphenyl)methoxy]-2-hydroxypropyl}piperazinyl)acetamide]",0.02,
"Cc1cccc(C)c1NC(=O)CN1CCN(CC(O)COCc2ccc3ccccc3c2)CC1 (stereo not drawn) [Compound 25, N-(2,6-dimethylphenyl)-2-{4-[2-hydroxy-3-(2-naphthylmethoxy)propyl]piperazinyl}acetamide]",0.01,
